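Exposure lasted 48 hours, with cells grown in 96-well plates and compounds tested at five concentrations. GI50: concentration for 50% inhibition of growth. Definition used: TGI = concentration required for complete inhibition of growth.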
Experiments:
Test in all cases: NCI anticancer screen, dose series, 48 h
HOP-62 NSCLC = system: HOP-62 NSCLC
HL-60(TB) leukemia = system: HL-60(TB) leukemia
NCI-H23 lung = system: NCI-H23 lung
OVCAR-3 ovarian = system: OVCAR-3 ovarian
MDA-MB-435 = system: MDA-MB-435
HCT-15 colon = system: HCT-15 colon
M14 melanoma = system: M14 melanoma
BT-549 breast = system: BT-549 breast
HCC-2998 colon = system: HCC-2998 colon
SNB-19 CNS = system: SNB-19 CNS
NCI/ADR-RES ovarian = system: NCI/ADR-RES ovarian
SW-620 colon = system: SW-620 colon
CAKI-1 renal = system: CAKI-1 renal
SK-MEL-28 melanoma = system: SK-MEL-28 melanoma
SR leukemia = system: SR leukemia
PC-3 prostate = system: PC-3 prostate
A549 NSCLC = system: A549 NSCLC
HT29 colon = system: HT29 colon
SK-OV-3 ovarian = system: SK-OV-3 ovarian
SK-MEL-2 melanoma = system: SK-MEL-2 melanoma
SF-295 CNS = system: SF-295 CNS
SN12C renal = system: SN12C renal
ACHN renal = system: ACHN renal
HOP-92 NSCLC = system: HOP-92 NSCLC
MDA-MB-231 breast = system: MDA-MB-231 breast
MCF7 breast = system: MCF7 breast
K-562 leukemia = system: K-562 leukemia
SK-MEL-5 melanoma = system: SK-MEL-5 melanoma
SF-268 CNS = system: SF-268 CNS

Question: With `O[C@H](CN1CC1)[C@@H](O)CN1CC1` as the compound, how does the GI50 (HOP-62 NSCLC) read?
Answer: The GI50 was 3.41 µM.

Question: What about the TGI (HOP-62 NSCLC) of the same compound?
Answer: The TGI was 47.2 µM.

Question: What about the GI50 (HL-60(TB) leukemia) of the same compound?
Answer: The GI50 was 1.22 µM.

Question: What about the TGI (HL-60(TB) leukemia) of the same compound?
Answer: Its TGI is over 100 µM.

Question: What about the GI50 (NCI-H23 lung) of the same compound?
Answer: The GI50 was 3.24 µM.

Question: And the TGI (NCI-H23 lung)?
Answer: Its TGI is over 100 µM.

Question: And the GI50 (OVCAR-3 ovarian)?
Answer: Its GI50 is 13.3 µM.

Question: What about the TGI (OVCAR-3 ovarian) of the same compound?
Answer: The TGI was 35.2 µM.

Question: And the GI50 (MDA-MB-435)?
Answer: Its GI50 is 10.5 µM.

Question: What about the TGI (MDA-MB-435) of the same compound?
Answer: Its TGI is 29.8 µM.

Question: What about the GI50 (HCT-15 colon) of the same compound?
Answer: Its GI50 is 10.6 µM.

Question: And the TGI (HCT-15 colon)?
Answer: Its TGI is 88.9 µM.

Question: And the GI50 (M14 melanoma)?
Answer: The GI50 was 3.77 µM.

Question: And the TGI (M14 melanoma)?
Answer: The TGI was 22.3 µM.

Question: What about the GI50 (BT-549 breast) of the same compound?
Answer: The GI50 was 12.6 µM.

Question: And the TGI (BT-549 breast)?
Answer: Its TGI is 60.9 µM.

Question: What about the GI50 (HCC-2998 colon) of the same compound?
Answer: Its GI50 is 13.8 µM.

Question: And the TGI (HCC-2998 colon)?
Answer: Its TGI is 51.3 µM.

Question: What about the GI50 (SNB-19 CNS) of the same compound?
Answer: Its GI50 is 6.58 µM.

Question: What about the TGI (SNB-19 CNS) of the same compound?
Answer: The TGI was over 100 µM.

Question: What about the GI50 (NCI/ADR-RES ovarian) of the same compound?
Answer: Its GI50 is 2.8 µM.

Question: And the TGI (NCI/ADR-RES ovarian)?
Answer: The TGI was 53.1 µM.

Question: What about the GI50 (SW-620 colon) of the same compound?
Answer: Its GI50 is 4.61 µM.

Question: What about the TGI (SW-620 colon) of the same compound?
Answer: The TGI was over 100 µM.

Question: What about the GI50 (CAKI-1 renal) of the same compound?
Answer: Its GI50 is 0.423 µM.

Question: And the TGI (CAKI-1 renal)?
Answer: Its TGI is 2.85 µM.

Question: What about the GI50 (SK-MEL-28 melanoma) of the same compound?
Answer: The GI50 was 19.5 µM.

Question: What about the TGI (SK-MEL-28 melanoma) of the same compound?
Answer: Its TGI is 84.7 µM.

Question: What about the GI50 (SR leukemia) of the same compound?
Answer: Its GI50 is 0.452 µM.

Question: And the TGI (SR leukemia)?
Answer: The TGI was over 100 µM.

Question: And the GI50 (PC-3 prostate)?
Answer: The GI50 was 15.1 µM.

Question: What about the TGI (PC-3 prostate) of the same compound?
Answer: Its TGI is over 100 µM.

Question: What about the GI50 (A549 NSCLC) of the same compound?
Answer: Its GI50 is 7.28 µM.

Question: And the TGI (A549 NSCLC)?
Answer: Its TGI is over 100 µM.

Question: And the GI50 (HT29 colon)?
Answer: The GI50 was 10.2 µM.

Question: What about the TGI (HT29 colon) of the same compound?
Answer: The TGI was 26.6 µM.

Question: What about the GI50 (SK-OV-3 ovarian) of the same compound?
Answer: The GI50 was 4.91 µM.

Question: And the TGI (SK-OV-3 ovarian)?
Answer: Its TGI is 29.9 µM.

Question: And the GI50 (SK-MEL-2 melanoma)?
Answer: Its GI50 is 41 µM.

Question: And the TGI (SK-MEL-2 melanoma)?
Answer: The TGI was over 100 µM.

Question: What about the GI50 (SF-295 CNS) of the same compound?
Answer: Its GI50 is 0.382 µM.

Question: And the TGI (SF-295 CNS)?
Answer: The TGI was 1.71 µM.

Question: And the GI50 (SN12C renal)?
Answer: Its GI50 is 1.86 µM.

Question: What about the TGI (SN12C renal) of the same compound?
Answer: The TGI was over 100 µM.

Question: And the GI50 (ACHN renal)?
Answer: The GI50 was 0.499 µM.

Question: What about the TGI (ACHN renal) of the same compound?
Answer: The TGI was 14.7 µM.

Question: What about the GI50 (HOP-92 NSCLC) of the same compound?
Answer: The GI50 was 7.62 µM.

Question: What about the TGI (HOP-92 NSCLC) of the same compound?
Answer: Its TGI is 67.9 µM.

Question: And the GI50 (MDA-MB-231 breast)?
Answer: The GI50 was 24 µM.

Question: What about the TGI (MDA-MB-231 breast) of the same compound?
Answer: The TGI was 71.6 µM.

Question: And the GI50 (MCF7 breast)?
Answer: Its GI50 is 1.84 µM.

Question: What about the TGI (MCF7 breast) of the same compound?
Answer: Its TGI is over 100 µM.

Question: And the GI50 (K-562 leukemia)?
Answer: Its GI50 is 6.84 µM.

Question: And the TGI (K-562 leukemia)?
Answer: Its TGI is over 100 µM.

Question: And the GI50 (SK-MEL-5 melanoma)?
Answer: Its GI50 is 13.1 µM.

Question: And the TGI (SK-MEL-5 melanoma)?
Answer: Its TGI is 29.2 µM.

Question: And the GI50 (SF-268 CNS)?
Answer: Its GI50 is 2.6 µM.

Reference: PubChem BioAssay (NCI)
